# Laboratory results as given in patent US9073940B2, “Tricyclic pyrazol amine derivatives” (MERCK SERONO SA, priority 2009, dated 2015).
# Test system: 4 PI3K isoforms (Human recombinant GST-PI3K)
# Experiment: PI3K scintillation proximity assay, best IC50 obtained with the four isoforms (alpha, beta, delta, gamma)
# Type: biochemical
# Conditions: best IC50 obtained with the four isoforms of PI3K; read-out: Best potency measured on the 4 PI3K isoforms
row,IC50,Structure (SMILES)
1,36 nM,"O=C(c1nn([C@H]2CCCN(C3CCCOC3)C2)c2c1CS(=O)(=O)c1ncccc1-2)N1CCOCC1 (single isomer, unassigned) [Example 381, 3-(morpholin-4-ylcarbonyl)-1-[1-(tetrahydro-2H-pyran-3-yl)piperidin-3-yl]-1,4-dihydropyrazolo[3′,4′:4,5]thiopyrano[2,3-b]pyridine 5,5-dioxide]"
2,156 nM,"O=C(c1nn(C2CCN(CCN3CC(F)(F)C3)C2)c2c1CS(=O)(=O)c1ccccc1-2)N1CCOCC1 (stereo not drawn) [Example 311, 1-{1-[2-(3,3-Difluoroazetidin-1-yl)ethyl]pyrrolidin-3-yl}-3-(morpholin-4-ylcarbonyl)-1,4-dihydrothiochromeno[4,3-c]pyrazole 5,5-dioxide]"
3,3050 nM,"O=C(c1nn(-c2ccccc2)c2c1CS(=O)(=O)c1ccncc1-2)N1CCOCC1 [Example 150, 3-(Morpholin-4-ylcarbonyl)-1-phenyl-1,4-dihydropyrazolo[3′,4′:4,5]thiopyrano[3,2-c]pyridine 5,5-dioxide]"
4,1490 nM,"O=C(c1nn(Cc2nc3ccccc3s2)c2c1CS(=O)(=O)c1ccccc1-2)N1CCOCC1 [Example 239, 1-(1,3-Benzothiazol-2-ylmethyl)-3-(morpholin-4-ylcarbonyl)-1,4-dihydrothiochromeno[4,3-c]pyrazole 5,5-dioxide]"
5,5600 nM,"O=C(c1nn([C@H]2CCCN(CCn3ccnc3)C2)c2c1CS(=O)(=O)c1ccccc1-2)N1CCOCC1 (single isomer, unassigned) [Example 412, 1-{1-[2-(1H-imidazol-1-yl)ethyl]piperidin-3-yl}-3-(morpholin-4-ylcarbonyl)-1,4-dihydrothiochromeno[4,3-c]pyrazole 5,5-dioxide]"
6,16 nM,"O=C(c1nn(C2CCCN(CCN3CCOCC3)C2)c2c1CS(=O)(=O)c1c(F)cccc1-2)N1CCOCC1 (stereo not drawn) [Example 413, 6-fluoro-3-(morpholin-4-ylcarbonyl)-1-[1-(2-morpholin-4-ylethyl)piperidin-3-yl]-1,4-dihydrothiochromeno[4,3-c]pyrazole 5,5-dioxide]"
7,140 nM,"COCCCN1CCCC(n2nc(C(=O)N3CCOCC3)c3c2-c2ccccc2S(=O)(=O)C3)C1 (stereo not drawn) [Example 172, 1-[1-(3-Methoxypropyl)piperidin-3-yl]-3-(morpholin-4-ylcarbonyl)-1,4-dihydrothiochromeno[4,3-c]pyrazole 5,5-dioxide]"
8,440 nM,"O=C(c1nn(-c2cccc(Cl)c2)c2c1CS(=O)(=O)c1ccccc1-2)N1CCOCC1 [Example 26, 1-(3-chlorophenyl)-3-(morpholin-4-ylcarbonyl)-1,4-dihydrothiochromeno[4,3-c]pyrazole 5,5-dioxide]"
9,105 nM,"CC1CN(Cc2ccc(-n3nc(C(=O)N4CCOCC4)c4c3-c3ccccc3S(=O)(=O)C4)cc2)CCO1 (stereo not drawn) [Example 432, 1-{4-[(2-Methylmorpholin-4-yl)methyl]phenyl}-3-(morpholin-4-ylcarbonyl)-1,4-dihydrothiochromeno[4,3-c]pyrazole 5,5-dioxide]"
10,1310 nM,"CS(=O)(=O)Nc1ccc2c(c1)-c1c(c(C(=O)N3CCOCC3)nn1-c1ccccc1)CS2(=O)=O [Example 118, N-[3-(Morpholin-4-ylcarbonyl)-5,5-dioxido-1-phenyl-1,4-dihydrothiochromeno[4,3-c]pyrazol-8-yl]methanesulfonamide]"
11,1520 nM,O=C(c1nn(C2CCNCC2)c2c1CS(=O)(=O)c1ccccc1-2)N1CCOCC1 [Example 74]
12,584 nM,"CC(C)(c1ccc(-n2nc(C(=O)N3CCOCC3)c3c2-c2ccccc2S(=O)(=O)C3)cc1)N1CCOCC1 [Example 457, 1-[4-(1-Methyl-1-morpholin-4-ylethyl)phenyl]-3-(morpholin-4-ylcarbonyl)-1,4-dihydrothiochromeno[4,3-c]pyrazole 5,5-dioxide]"
13,587 nM,"CC(C)(C)CCN1CCCC(n2nc(C(=O)N3CCOCC3)c3c2-c2ccccc2S(=O)(=O)C3)C1 (stereo not drawn) [Example 220, 1-[1-(3,3-Dimethylbutyl)piperidin-3-yl]-3-(morpholin-4-ylcarbonyl)-1,4-dihydrothiochromeno[4,3-c]pyrazole 5,5-dioxide]"
14,2080 nM,"O=C(c1nn(-c2ccc3nn(Cc4ccccc4)cc3c2)c2c1CS(=O)(=O)c1ccccc1-2)N1CCOCC1 [Example 204, 1-(2-Benzyl-2H-indazol-5-yl)-3-(morpholin-4-ylcarbonyl)-1,4-dihydrothiochromeno[4,3-c]pyrazole 5,5-dioxide]"
15,673 nM,"O=C(c1nn(-c2cccc(N3CCOCC3)c2)c2c1CS(=O)(=O)c1ccccc1-2)N1CCOCC1 [Example 154, 3-(Morpholin-4-ylcarbonyl)-1-(3-morpholin-4-ylphenyl)-1,4-dihydrothiochromeno[4,3-c]pyrazole 5,5-dioxide]"
16,15 nM,"COc1ccc2c(c1)S(=O)(=O)Cc1c(C(=O)N3CCOCC3)nn([C@H]3CCCN(CCN4CC(F)(F)C4)C3)c1-2 (single isomer, unassigned) [Example 382, 1-{1-[2-(3,3-difluoroazetidin-1-yl)ethyl]piperidin-3-yl}-7-methoxy-3-(morpholin-4-ylcarbonyl)-1,4-dihydrothiochromeno[4,3-c]pyrazole 5,5-dioxide]"

row,IC50,Structure (SMILES)
1,4520 nM,"CS(=O)(=O)c1ccc(-n2nc(C(=O)N3CCOCC3)c3c2-c2ccccc2S(=O)(=O)C3)cc1 [Example 130, 1-[4-(Methylsulfonyl)phenyl]-3-(morpholin-4-ylcarbonyl)-1,4-dihydrothiochromeno[4,3-c]pyrazole 5,5-dioxide]"
2,40 nM,"COc1cccc2c1S(=O)(=O)Cc1c(C(=O)N3CCOCC3)nn([C@H]3CCCN(CCN4CC(F)(F)C4)C3)c1-2 (single isomer, unassigned) [Example 442, 1-{1-[2-(3,3-difluoroazetidin-1-yl)ethyl]piperidin-3-yl}-6-methoxy-3-(morpholin-4-ylcarbonyl)-1,4-dihydrothiochromeno[4,3-c]pyrazole 5,5-dioxide]"
3,3590 nM,"O=C(Nc1cccc(-n2nc(C(=O)N3CCOCC3)c3c2-c2ccccc2S(=O)(=O)C3)c1)N1CCOCC1 [Example 209, N-{3-[3-(Morpholin-4-ylcarbonyl)-5,5-dioxidothiochromeno[4,3-c]pyrazol-1 (4H)-yl]phenyl)morpholine-4-carboxamide]"
4,10300 nM,O=C(c1nn(-c2ccc(-c3ccccc3)cc2)c2c1CS(=O)(=O)c1ccccc1-2)N1CCOCC1 [Example 328]
5,9790 nM,CCCCNc1ccc2c(c1)S(=O)(=O)Cc1c(C(=O)N3CCOCC3)nn(-c3ccccc3)c1-2 [Example 326]
6,1480 nM,"COCCN1CCC(n2nc(C(=O)N3CCOCC3)c3c2-c2ccccc2S(=O)(=O)C3)C1 (stereo not drawn) [Example 255, 1-[1-(2-Methoxyethyl)pyrrolidin-3-yl]-3-(morpholin-4-ylcarbonyl)-1,4-dihydrothiochromeno[4,3-c]pyrazole 5,5-dioxide]"
7,3350 nM,"COc1ccc2c(c1)-c1c(c(C(=O)N3CCOCC3)nn1-c1ccccc1)CS2(=O)=O [Example 113, 8-Methoxy-3-(morpholin-4-ylcarbonyl)-1-phenyl-1,4-dihydrothiochromeno[4,3-c]pyrazole 5,5-dioxide]"
8,1470 nM,"CC(C)c1ccc(-n2nc(C(=O)N3CCOCC3)c3c2-c2ccccc2S(=O)(=O)C3)cc1 [Example 30, 1-(4-isopropylphenyl)-3-(morpholin-4-ylcarbonyl)-1,4-dihydrothiochromeno[4,3-c]pyrazole 5,5-dioxide]"
9,641 nM,"CN(C)S(=O)(=O)c1cccc(-n2nc(C(=O)N3CCOCC3)c3c2-c2ccccc2S(=O)(=O)C3)c1 [Example 207, N,N-Dimethvl-3-[3-(morpholin-4-ylcarbonyl)-5,5-dioxidothiochromeno[4,3-c]pyrazol-1 (4H)-yl]benzenesulfonamide]"
10,573 nM,"O=C(c1nn(-c2cccc(CN3CCC(O)CC3)c2)c2c1CS(=O)(=O)c1ccccc1-2)N1CCOCC1 [Example 237, 1-{3-[3-(Morpholin-4-ylcarbonyl)-5,5-dioxidothiochromeno[4,3-c]pyrazol-1 (4H)-yl]benzyl}piperidin-4-ol]"
11,49 nM,"Cc1cccc2c1S(=O)(=O)Cc1c(C(=O)N3CCOCC3)nn([C@H]3CCCN(CCN4CCOCC4)C3)c1-2 (stereo in doubt) [Example 471, 6-methyl-3-(morpholin-4-ylcarbonyl)-1-[1-(2-morpholin-4-ylethyl)piperidin-3-yl]-1,4-dihydrothiochromeno[4,3-c]pyrazole 5,5-dioxide]"
12,871 nM,"CC(=O)OCCN1CCC(n2nc(C(=O)N3CCOCC3)c3c2-c2ccccc2S(=O)(=O)C3)C1 (stereo not drawn) [Example 299, 2{3-[3-(Morpholin-4-ylcarbonyl)-5,5-dioxidothiochromeno[4,3-c]pyrazol-1(4H)-yl]pyrrolidin-1-yl)ethyl acetate]"
13,80 nM,"O=C(c1nn(C2CCCN(CCn3cccn3)C2)c2c1CS(=O)(=O)c1c(F)cccc1-2)N1CCOCC1 (stereo not drawn) [Example 406, 6-Fluoro-3-(morpholin-4-ylcarbonyl)-1-{1-[2-(1H-pyrazol-1-yl)ethyl]piperidin-3-yl}-1,4-dihydrothiochromeno[4,3-c]pyrazole 5,5-dioxide]"
14,2480 nM,"O=C(c1nn(-c2ccccc2)c2c1C(Cc1ccccc1)S(=O)(=O)c1ccccc1-2)N1CCOCC1 (stereo not drawn) [Example 57, 4-benzyl-3-(morpholin-4-ylcarbonyl)-1-phenyl-1,4-dihydrothiochromeno[4,3-c]pyrazole 5,5-dioxide]"
15,373 nM,"O=C(c1nn(-c2ccc(F)cc2)c2c1CS(=O)(=O)c1ccccc1-2)N1CCOCC1 [Example 28, 1-(4-fluorophenyl)-3-(morpholin-4-ylcarbonyl)-1,4-dihydrothiochromeno[4,3-c]pyrazole 5,5-dioxide]"
16,28 nM,"CN1CCC(N2CCC[C@H](n3nc(C(=O)N4CCOCC4)c4c3-c3ccccc3S(=O)(=O)C4)C2)CC1 (stereo in doubt) [Example 451, 1-[1′-methyl-1,4′-bipiperidin-3-yl]-3-(morpholin-4-ylcarbonyl)-1,4-dihydrothiochromeno[4,3-c]pyrazole 5,5-dioxide]"

# Same assay, conditions: inhibition at 20 μM
row,Structure (SMILES),"Best potency measured on the 4 PI3K isoforms, % inh @20 μM"
1,"CC1(C)c2c(C(=O)N3CCOCC3)nn(-c3ccccc3)c2-c2ccccc2S1(=O)=O [Example 60, 4,4-dimethyl-3-(morpholin-4-ylcarbonyl)-1-phenyl-1,4-dihydrothiochromeno[4,3-c]pyrazole 5,5-dioxide]",52% in @20 μM
